Test results: patent publication US8741944B2, “Anti-infective agents against intracellular pathogens” (priority 2007, dated 2014)
Read-outs that look alike come from different tables or passages of the source.

Assays:
SR (Leukemia) = experiment: NCI DTP tumor cell line screen (SRB), SR
Method: (§1) For a typical screening experiment, cells are inoculated into 96 well microtiter plates in 100 μL at plating densities ranging from 5,000 to 40,000 cells/well depending on the doubling time of individual cell lines. After cell inoculation, the microtiter plates are incubated at 37° C., 5% CO2, 95% air and 100% relative humidity for 24 h prior to addition of experimental drugs.
(§2) After 24 h, two plates of each cell line are fixed in situ with TCA, to represent a measurement of the cell population for each cell line at the time of drug addition (Tz). Experimental drugs are solubilized in dimethyl sulfoxide at 400-fold the desired final maximum test concentration and stored frozen prior to use. At the time of drug addition, an aliquot of frozen concentrate is thawed and diluted to twice the desired final maximum test concentration with complete medium containing 50 μg/ml gentamicin. Additional four, 10-fold or ½ log serial dilutions are made to provide a total of five drug concentrations plus control. Aliquots of 100 μl of these different drug dilutions are added to the appropriate microtiter wells already containing 100 μl of medium, resulting in the required final drug concentrations.
(§3) Following drug addition, the plates are incubated for an additional 48 h at 37° C., 5% CO2, 95% air, and 100% relative humidity. For adherent cells, the assay is terminated by the addition of cold TCA. Cells are fixed in situ by the gentle addition of 50 μl of cold 50% (w/v) TCA (final concentration, 10% TCA) and incubated for 60 minutes at 4° C. The supernatant is discarded, and the plates are washed five times with tap water and air dried. Sulforhodamine B (SRB) solution (1001) at 0.4% (w/v) in 1% acetic acid is added to each well, and plates are incubated for 10 minutes at room temperature. After staining, unbound dye is removed by washing five times with 1% acetic acid and the plates are air dried. Bound stain is subsequently solubilized with 10 mM trizma base, and the absorbance is read on an automated plate reader at a wavelength of 515 nm. For suspension cells, the methodology is the same except that the assay is terminated by fixing settled cells at the bottom of the wells by gently adding 50 μl of 80% TCA (final concentration, 16% TCA). Using the seven absorbance measurements [time zero, (Tz), control growth, (C), and test growth in the presence of drug at the five concentration levels (Ti)], the percentage growth is calculated at each of the drug concentrations levels. Percentage growth inhibition is calculated as: [(Ti−Tz)/(C−Tz)]×100 for concentrations for which Ti>/=Tz [(Ti−Tz)/Tz]×100 for concentrations for which Ti<Tz
(§4) Three dose response parameters are calculated for each experimental agent. […] The drug concentration resulting in total growth inhibition (TGI) is calculated from Ti=Tz. […] Values are calculated for each of these three parameters if the level of activity is reached; however, if the effect is not reached or is exceeded, the value for that parameter is expressed as greater or less than the maximum or minimum concentration tested.

[1] = tested on: EKVX (Non-Small Cell Lung Cancer); experiment: NCI DTP tumor cell line screen (SRB), EKVX
Method: as §1, §2, §3, §4

MCF7 (Breast Cancer) = experiment: NCI DTP tumor cell line screen (SRB), MCF7
Method: as §1, §2, §3, §4

K-562 (Leukemia) = experiment: NCI DTP tumor cell line screen (SRB), K-562
Method: as §1, §2, §3, §4

[2] = tested on: HOP-62 (Non-Small Cell Lung Cancer); experiment: NCI DTP tumor cell line screen (SRB), HOP-62
Method: as §1, §2, §3, §4

HCT-15 (Colon Cancer) = experiment: NCI DTP tumor cell line screen (SRB), HCT-15
Method: as §1, §2, §3, §4

CAKI-1 (Renal Cancer) = experiment: NCI DTP tumor cell line screen (SRB), CAKI-1
Method: as §1, §2, §3, §4

[3] = tested on: NCI-H23 (Non-Small Cell Lung Cancer)
Method: as §1, §2, §3, §4

UACC-62 (Melanoma) = experiment: NCI DTP tumor cell line screen (SRB), UACC-62
Method: as §1, §2, §3, §4

OVCAR-8 (Ovarian Cancer) = experiment: NCI DTP tumor cell line screen (SRB), OVCAR-8
Method: as §1, §2, §3, §4

COLO 205 (Colon Cancer) = experiment: NCI DTP tumor cell line screen (SRB), COLO 205
Method: as §1, §2, §3, §4

SK-MEL-2 (Melanoma) = experiment: NCI DTP tumor cell line screen (SRB), SK-MEL-2
Method: as §1, §2, §3, §4

SK-MEL-5 (Melanoma) = experiment: NCI DTP tumor cell line screen (SRB), SK-MEL-5
Method: as §1, §2, §3, §4

[4] = tested on: A549/ATCC (Non-Small Cell Lung Cancer); experiment: NCI DTP tumor cell line screen (SRB), A549/ATCC
Method: as §1, §2, §3, §4

[5] = tested on: MDA-MB-435 (Breast Cancer); experiment: NCI DTP tumor cell line screen (SRB), MDA-MB-435
Method: as §1, §2, §3, §4

[6] = tested on: MDA-MB-231/ATCC (Breast Cancer); experiment: NCI DTP tumor cell line screen (SRB), MDA-MB-231/ATCC
Method: as §1, §2, §3, §4

4-[5-(2-Phenanthrenyl)-3-(trifluoromethyl)-1H-pyrazol-1-yl]-phenyl -guanidine [Compound 71]
GI50 (SR (Leukemia)): 38.6 nM
TGI (SR (Leukemia)): 3.79E−07
Percent Growth (SR (Leukemia); Log10 Concentration −4.0): −21%
Percent Growth (SR (Leukemia); Log10 Concentration −5.0): −36%
Percent Growth (SR (Leukemia); Log10 Concentration −6.0): −30%
Percent Growth (SR (Leukemia); Log10 Concentration −7.0): 42%
Percent Growth (SR (Leukemia); Log10 Concentration −8.0): 62%
GI50 [1]: 1060 nM
TGI [1]: 2.24E−06
Percent Growth ([1]; Log10 Concentration −5.0): −100%
Percent Growth ([1]; Log10 Concentration −7.0): 63%
Percent Growth ([1]; Log10 Concentration −8.0): 55%
GI50 (MCF7 (Breast Cancer)): 1820 nM
TGI (MCF7 (Breast Cancer)): 3.44E−06
Percent Growth (MCF7 (Breast Cancer); Log10 Concentration −4.0): −49%
Percent Growth (MCF7 (Breast Cancer); Log10 Concentration −6.0): 97%
Percent Growth (MCF7 (Breast Cancer); Log10 Concentration −7.0): 82%
GI50 (K-562 (Leukemia)): 326 nM
TGI (K-562 (Leukemia)): 1.52E−06
Percent Growth (K-562 (Leukemia); Log10 Concentration −4.0): −60%
Percent Growth (K-562 (Leukemia); Log10 Concentration −5.0): −58%
Percent Growth (K-562 (Leukemia); Log10 Concentration −6.0): 13%
Percent Growth (K-562 (Leukemia); Log10 Concentration −8.0): 94%
GI50 [2]: 1720 nM
Percent Growth ([2]; Log10 Concentration −4.0): −36%
Percent Growth ([2]; Log10 Concentration −5.0): −98%
Percent Growth ([2]; Log10 Concentration −7.0): 97%
Percent Growth ([2]; Log10 Concentration −8.0): 100%
GI50 (HCT-15 (Colon Cancer); HCT-15): 1540 nM
TGI (HCT-15 (Colon Cancer); HCT-15): 2.87E−06
Percent Growth (HCT-15 (Colon Cancer); HCT-15, Log10 Concentration −4.0): −71%
Percent Growth (HCT-15 (Colon Cancer); HCT-15, Log10 Concentration −5.0): −100%
Percent Growth (HCT-15 (Colon Cancer); HCT-15, Log10 Concentration −8.0): 64%
GI50 (CAKI-1 (Renal Cancer)): 1830 nM
TGI (CAKI-1 (Renal Cancer)): 3.22E−06
Percent Growth (CAKI-1 (Renal Cancer); Log10 Concentration −4.0): −47%
Percent Growth (CAKI-1 (Renal Cancer); Log10 Concentration −5.0): −100%
Percent Growth (CAKI-1 (Renal Cancer); Log10 Concentration −6.0): 103%
Percent Growth (CAKI-1 (Renal Cancer); Log10 Concentration −8.0): 97%
GI50 [3]: 1790 nM
TGI [3]: 3.18E−06
Percent Growth ([3]; Log10 Concentration −4.0): −67%
Percent Growth ([3]; Log10 Concentration −5.0): −100%
Percent Growth ([3]; Log10 Concentration −6.0): 101%
GI50 (UACC-62 (Melanoma)): 1440 nM
TGI (UACC-62 (Melanoma)): 2.74E−06
Percent Growth (UACC-62 (Melanoma); Log10 Concentration −4.0): −60%
Percent Growth (UACC-62 (Melanoma); Log10 Concentration −5.0): −100%
Percent Growth (UACC-62 (Melanoma); Log10 Concentration −6.0): 78%
Percent Growth (UACC-62 (Melanoma); Log10 Concentration −7.0): 83%
GI50 (OVCAR-8 (Ovarian Cancer); OVCAR 8): 1690 nM
TGI (OVCAR-8 (Ovarian Cancer); OVCAR 8): 3.05E−06
Percent Growth (OVCAR-8 (Ovarian Cancer); OVCAR 8, Log10 Concentration −4.0): −69%
Percent Growth (OVCAR-8 (Ovarian Cancer); OVCAR 8, Log10 Concentration −5.0): −100%
Percent Growth (OVCAR-8 (Ovarian Cancer); OVCAR 8, Log10 Concentration −6.0): 94%
Percent Growth (OVCAR-8 (Ovarian Cancer); OVCAR 8, Log10 Concentration −8.0): 92%
GI50 (COLO 205 (Colon Cancer)): 1360 nM
TGI (COLO 205 (Colon Cancer)): 2.69E−06
Percent Growth (COLO 205 (Colon Cancer); Log10 Concentration −4.0): −32%
Percent Growth (COLO 205 (Colon Cancer); Log10 Concentration −6.0): 73%
Percent Growth (COLO 205 (Colon Cancer); Log10 Concentration −7.0): 83%
Percent Growth (COLO 205 (Colon Cancer); Log10 Concentration −8.0): 95%
GI50 (SK-MEL-2 (Melanoma)): 1570 nM
TGI (SK-MEL-2 (Melanoma)): 2.91E−06
Percent Growth (SK-MEL-2 (Melanoma); Log10 Concentration −4.0): −29%
Percent Growth (SK-MEL-2 (Melanoma); Log10 Concentration −5.0): −100%
Percent Growth (SK-MEL-2 (Melanoma); Log10 Concentration −7.0): 97%
Percent Growth (SK-MEL-2 (Melanoma); Log10 Concentration −8.0): 85%
GI50 (SK-MEL-5 (Melanoma)): 2220 nM
TGI (SK-MEL-5 (Melanoma)): 4.07E−06
Percent Growth (SK-MEL-5 (Melanoma); Log10 Concentration −4.0): −34%
Percent Growth (SK-MEL-5 (Melanoma); Log10 Concentration −6.0): 116%
Percent Growth (SK-MEL-5 (Melanoma); Log10 Concentration −7.0): 111%
Percent Growth (SK-MEL-5 (Melanoma); Log10 Concentration −8.0): 97%
GI50 [4]: 1680 nM
TGI [4]: 3.04E−06
Percent Growth ([4]; Log10 Concentration −4.0): −63%
Percent Growth ([4]; Log10 Concentration −5.0): −100%
GI50 [5]: 1700 nM
TGI [5]: 3.07E−06
Percent Growth ([5]; Log10 Concentration −4.0): −27%
Percent Growth ([5]; Log10 Concentration −5.0): −100%
Percent Growth ([5]; Log10 Concentration −6.0): 95%
TGI [6]: 1.66E−06
Percent Growth ([6]; Log10 Concentration −4.0): −39%
Percent Growth ([6]; Log10 Concentration −5.0): −98%
Percent Growth ([6]; Log10 Concentration −6.0): 27%
Percent Growth ([6]; Log10 Concentration −7.0): 78%
Percent Growth ([6]; Log10 Concentration −8.0): 47%
